Measured values as given in US20090181986A1, “SUBSTITUTED HETEROCYCLIC COMPOUNDS” (priority 2007, published 2009).

Target: hERG potassium channel (Homo sapiens, UniProt Q12809)
Assay: hERG screening assay (PatchXpress patch clamp, CHO cells)

hERG potassium channel, sequence (Q12809 whole entry): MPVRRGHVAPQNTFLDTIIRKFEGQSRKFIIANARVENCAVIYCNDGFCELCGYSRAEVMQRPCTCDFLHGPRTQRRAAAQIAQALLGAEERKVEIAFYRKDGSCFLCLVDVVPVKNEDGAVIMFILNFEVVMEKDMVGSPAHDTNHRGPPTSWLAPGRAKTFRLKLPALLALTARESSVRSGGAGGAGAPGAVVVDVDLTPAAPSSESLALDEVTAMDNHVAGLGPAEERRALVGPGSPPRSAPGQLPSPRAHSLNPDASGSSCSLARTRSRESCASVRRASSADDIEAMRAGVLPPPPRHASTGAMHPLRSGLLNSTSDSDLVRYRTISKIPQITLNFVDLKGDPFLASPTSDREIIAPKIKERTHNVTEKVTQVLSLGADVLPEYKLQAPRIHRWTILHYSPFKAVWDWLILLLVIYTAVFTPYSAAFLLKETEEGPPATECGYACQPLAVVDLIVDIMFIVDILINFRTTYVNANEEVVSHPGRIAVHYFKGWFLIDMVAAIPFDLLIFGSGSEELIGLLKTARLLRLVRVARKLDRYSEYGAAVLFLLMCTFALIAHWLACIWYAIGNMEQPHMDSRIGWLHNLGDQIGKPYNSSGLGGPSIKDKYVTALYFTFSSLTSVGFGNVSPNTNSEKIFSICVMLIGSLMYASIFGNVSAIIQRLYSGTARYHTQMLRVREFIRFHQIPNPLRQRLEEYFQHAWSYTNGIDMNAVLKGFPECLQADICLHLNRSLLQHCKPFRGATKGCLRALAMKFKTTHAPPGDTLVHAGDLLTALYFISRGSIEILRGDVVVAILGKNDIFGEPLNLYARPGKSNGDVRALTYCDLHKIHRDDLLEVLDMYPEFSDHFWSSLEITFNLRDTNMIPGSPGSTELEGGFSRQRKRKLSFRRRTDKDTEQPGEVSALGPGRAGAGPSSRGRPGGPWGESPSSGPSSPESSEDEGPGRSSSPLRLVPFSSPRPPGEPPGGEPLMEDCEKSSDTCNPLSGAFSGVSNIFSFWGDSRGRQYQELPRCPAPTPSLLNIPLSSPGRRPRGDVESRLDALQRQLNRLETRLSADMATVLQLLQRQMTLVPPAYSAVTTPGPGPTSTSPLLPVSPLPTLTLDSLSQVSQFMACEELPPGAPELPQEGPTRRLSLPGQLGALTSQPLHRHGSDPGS

Compound | hERG Patch Clamp hERG % blk (1 μM test cmpd) | hERG Patch Clamp hERG % blk (10 μM test cmpd)
CCOC(=O)C1=C(C)Nc2nnnn2C1c1ccccc1-n1ccnc1.Cl (centres unmarked) [PT-476, ethyl 7-(2-(1H-imidazol-1-yl)phenyl)-5-methyl-4,7-dihydrotetrazolo[1,5-a]pyrimidine-6-carboxylate hydrochloride] | 17.5% | 23%
CCOC(=O)C1=C(C)Nc2[nH]ncc2C1c1ccc(OC)cc1OCc1ccccc1 (centres unmarked) [PT-445, ethyl 4-(2-(benzyloxy)-4-methoxyphenyl)-6-methyl-4,7-dihydro-1H-pyrazolo[3,4-b]pyridine-5-carboxylate] | 10.5% | 50%
COc1cc(Cl)ccc1COC(=O)C1=C(C)Nc2nnnn2C1c1c(C)cccc1C (centres unmarked) [PT-307, 4-chloro-2-methoxybenzyl 7-(2,6-dimethylphenyl)-5-methyl-4,7-dihydrotetrazolo[1,5-a]pyrimidine-6-carboxylate] | 10% | 62.5%
CCOC(=O)C1=C(C)Nc2nnnn2C1c1csc2ccccc12 (centres unmarked) [PT-017, ethyl 7-(benzo[b]thiophen-3-yl)-5-methyl-4,7-dihydrotetrazolo[1,5-a]pyrimidine-6-carboxylate] | 10% | 23.5%
CC1=C(C(=O)OCc2ccccc2)C(c2nccs2)c2cn[nH]c2N1 (centres unmarked) [PT-369, benzyl 6-methyl-4-(thiazol-2-yl)-4,7-dihydro-1H-pyrazolo[3,4-b]pyridine-5-carboxylate] | 10% | 25%
CC1=C(C(=O)OCc2ccccc2)C(c2ccc(N(C)C)c3ccccc23)n2nnnc2N1 (centres unmarked) [PT-032, benzyl 7-(4-(dimethylamino)naphthalen-1-yl)-5-methyl-4,7-dihydrotetrazolo[1,5-a]pyrimidine-6-carboxylate] | 19% | 50.5%
CC1=C(C(=O)OC(c2ccccc2)C2CC2)C(c2cccc3ccccc23)n2nnnc2N1 (centres unmarked) [PT-002, cyclopropyl(phenyl)methyl 5-methyl-7-(naphthalen-1-yl)-4,7-dihydrotetrazolo[1,5-a]pyrimidine-6-carboxylate] | 11.5% | 28%
COc1cc(Cl)ccc1COC(=O)C1=C(C)Nc2nnnn2C1c1c(Cl)cccc1Cl (centres unmarked) [PT-306, 4-chloro-2-methoxybenzyl 7-(2,6-dichlorophenyl)-5-methyl-4,7-dihydrotetrazolo[1,5-a]pyrimidine-6-carboxylate] | 10% | 48.5%
COc1ccc(COC(=O)C2=C(C)Nc3nnnn3C2c2cccc3ccccc23)cc1OC (centres unmarked) [PT-061, 3,4-dimethoxybenzyl 5-methyl-7-(naphthalen-1-yl)-4,7-dihydrotetrazolo[1,5-a]pyrimidine-6-carboxylate] | 24% | 46.5%
CC1=C(c2nnc(CCc3ccccc3)o2)C(c2cccc3ccccc23)n2nnnc2N1 (centres unmarked) [PT-252, 2-(5-methyl-7-(naphthalen-1-yl)-4,7-dihydrotetrazolo[1,5-a]pyrimidin-6-yl)-5-phenethyl-1,3,4-oxadiazole] | 10.5% | 78%
CCCC1=C(C(=O)OCC)C(c2ccc(C(=O)O)cc2)C2=C(CC(C)(C)CC2=O)N1 (centres unmarked) [PT-133, 4-(3-(ethoxycarbonyl)-7,7-dimethyl-5-oxo-2-propyl-1,4,5,6,7,8-hexahydroquinolin-4-yl)benzoic acid] | 10% | 12%
CC1=C(C(=O)OCc2ccccc2)[C@@H](c2ccccc2-c2ccc(Cl)s2)n2nnnc2N1 [PT-237, (R)-benzyl 7-(2-(5-chlorothiophen-2-yl)phenyl)-5-methyl-4,7-dihydrotetrazolo[1,5-a]pyrimidine-6-carboxylate] | 11.5% | 22.5%
CCOC(=O)C1=C(C)Nc2[nH]nc(C)c2C1c1cccc2ccccc12 (centres unmarked) [PT-074, ethyl 3,6-dimethyl-4-(naphthalen-1-yl)-4,7-dihydro-1H-pyrazolo[3,4-b]pyridine-5-carboxylate] | 14% | 43%
COc1cc(Cl)ccc1COC(=O)C1=C(C)NC2=C(C(=O)CCC2)C1c1c(Cl)cccc1Cl (centres unmarked) [PT-303, 4-chloro-2-methoxybenzyl 4-(2,6-dichlorophenyl)-2-methyl-5-oxo-1,4,5,6,7,8-hexahydroquinoline-3-carboxylate] | 12% | 30.5%
CC1=C(C(=O)OCc2ccccc2)C(c2ccccc2-c2ccccc2)n2nnnc2N1 (centres unmarked) [PT-025, benzyl 7-(biphenyl-2-yl)-5-methyl-4,7-dihydrotetrazolo[1,5-a]pyrimidine-6-carboxylate] | 11% | 53%
CCOC(=O)C1=C(CC)Nc2nnnn2C1c1cccc2ccccc12 (centres unmarked) [PT-010, ethyl 5-ethyl-7-(naphthalen-1-yl)-4,7-dihydrotetrazolo[1,5-a]pyrimidine-6-carboxylate] | 12.5% | 30%

Compound | hERG Patch Clamp hERG % blk (1 μM test cmpd) | hERG Patch Clamp hERG % blk (10 μM test cmpd)
CCOC(=O)C1=C(C)Nc2nccn2C1c1ccc2ccccc2c1 (centres unmarked) [PT-086, ethyl 7-methyl-5-(naphthalen-2-yl)-5,8-dihydroimidazo[1,2-a]pyrimidine-6-carboxylate] | 13.5% | 57.5%
CC1=C(C(=O)NCc2ccccc2)C(c2ccc3ccccc3c2)n2nnnc2N1 (centres unmarked) [PT-068, N-benzyl-5-methyl-7-(naphthalen-2-yl)-4,7-dihydrotetrazolo[1,5-a]pyrimidine-6-carboxamide] | 14% | 22.5%
C=CCOC(=O)C1=C(C)Nc2nnnn2C1c1cccc2ccccc12 (centres unmarked) [PT-319, allyl 5-methyl-7-(naphthalen-1-yl)-4,7-dihydrotetrazolo[1,5-a]pyrimidine-6-carboxylate] | 10% | 41%
CCOC(=O)C1=C(C)NC2=C(C(=O)CCC2)C1c1cccc2ncccc12 (centres unmarked) [PT-140, ethyl 2-methyl-5-oxo-1,4,5,6,7,8-hexahydro-4,5′-biquinoline-3-carboxylate] | 13.5% | 34.5%
CCOC(=O)C1=C(C)Nc2nnnn2C1c1sc2ccccc2c1C (centres unmarked) [PT-018, ethyl 5-methyl-7-(3-methylbenzo[b]thiophen-2-yl)-4,7-dihydrotetrazolo[1,5-a]pyrimidine-6-carboxylate] | 14.5% | 36.5%
CCOC(=O)C1=C(C)Nc2nnnn2C1c1cc2ccccc2o1 (centres unmarked) [PT-019, ethyl 7-(benzofuran-2-yl)-5-methyl-4,7-dihydrotetrazolo[1,5-a]pyrimidine-6-carboxylate] | 10% | 26%
CC1=C(C(=O)OCc2ccccc2)C(c2ccccc2-c2cccc(NS(C)(=O)=O)c2)n2nnnc2N1 (centres unmarked) [PT-348, benzyl 5-methyl-7-(3′-(methylsulfonamido)biphenyl-2-yl)-4,7-dihydrotetrazolo[1,5-a]pyrimidine-6-carboxylate] | 10% | 38.5%
CC1=C(C(=O)OCc2ccccc2)C(c2c(Br)sc3ccccc23)n2nnnc2N1 (centres unmarked) [PT-386, benzyl 7-(2-bromobenzo[b]thiophen-3-yl)-5-methyl-4,7-dihydrotetrazolo[1,5-a]pyrimidine-6-carboxylate] | 10% | 16.5%
CCOC(=O)C1=C(C)NC2=C(C(=O)CCC2)C1c1ccnc2ccccc12 (centres unmarked) [PT-190, ethyl 2-methyl-5-oxo-1,4,5,6,7,8-hexahydro-4,4′-biquinoline-3-carboxylate] | 10.5% | 32%
CC1=C(C(=O)OC(C)C)C(c2cccc3ccccc23)n2nnnc2N1 (centres unmarked) [PT-021, isopropyl 5-methyl-7-(naphthalen-1-yl)-4,7-dihydrotetrazolo[1,5-a]pyrimidine-6-carboxylate] | 13% | 43.5%
CC1=C(C(=O)OCc2ccccc2)C(c2ccccc2N2CCCCC2)n2nnnc2N1 (centres unmarked) [PT-342, benzyl 5-methyl-7-(2-(piperidin-1-yl)phenyl)-4,7-dihydrotetrazolo[1,5-a]pyrimidine-6-carboxylate] | 10% | 47.5%
COC(=O)c1ccc(-c2n[nH]c3c2C(c2cccc4ccccc24)C2=C(COC2=O)N3)cc1 (centres unmarked) [PT-085, methyl 4-(4-(naphthalen-1-yl)-5-oxo-4,5,7,8-tetrahydro-1H-furo[3,4-b]pyrazolo[4,3-e]pyridin-3-yl)benzoate] | 34% | 44.5%
CC1=C(C(=O)OCc2ccccc2)C(c2ccccc2-c2ccc(C(=O)O)cc2)n2nnnc2N1 (centres unmarked) [PT-254, 2′-(6-(benzyloxycarbonyl)-5-methyl-4,7-dihydrotetrazolo[1,5-a]pyrimidin-7-yl)biphenyl-4-carboxylic acid] | 15% | 20%
CC1=C(C(=O)OCc2ccccc2)C(c2c(-c3ccc(C(=O)O)cc3)sc3ccccc23)n2nnnc2N1 (centres unmarked) [PT-294, 4-(3-(6-(benzyloxycarbonyl)-5-methyl-4,7-dihydrotetrazolo[1,5-a]pyrimidin-7-yl)benzo[b]thiophen-2-yl)benzoic acid] | 12.5% | 15.5%
CC1=C(C(=O)OCc2ccccc2)C(c2ccc3ccccc3c2)c2c(C)n[nH]c2N1 (centres unmarked) [PT-325, benzyl 3,6-dimethyl-4-(naphthalen-2-yl)-4,7-dihydro-1H-pyrazolo[3,4-b]pyridine-5-carboxylate] | 10% | 36%
